{"source": "patent US12358915B2", "about": "“METTL3 inhibitory compounds” (STORM THERAPEUTICS LTD., priority 2019, dated 2025)", "biological_target": "T1, METTL3/14 (Homo sapiens, UniProt Q86U44)", "T1 construct": "The enzyme used was full-length his-tagged METTL3; His; made in house", "T1 sequence (Q86U44 whole entry)": "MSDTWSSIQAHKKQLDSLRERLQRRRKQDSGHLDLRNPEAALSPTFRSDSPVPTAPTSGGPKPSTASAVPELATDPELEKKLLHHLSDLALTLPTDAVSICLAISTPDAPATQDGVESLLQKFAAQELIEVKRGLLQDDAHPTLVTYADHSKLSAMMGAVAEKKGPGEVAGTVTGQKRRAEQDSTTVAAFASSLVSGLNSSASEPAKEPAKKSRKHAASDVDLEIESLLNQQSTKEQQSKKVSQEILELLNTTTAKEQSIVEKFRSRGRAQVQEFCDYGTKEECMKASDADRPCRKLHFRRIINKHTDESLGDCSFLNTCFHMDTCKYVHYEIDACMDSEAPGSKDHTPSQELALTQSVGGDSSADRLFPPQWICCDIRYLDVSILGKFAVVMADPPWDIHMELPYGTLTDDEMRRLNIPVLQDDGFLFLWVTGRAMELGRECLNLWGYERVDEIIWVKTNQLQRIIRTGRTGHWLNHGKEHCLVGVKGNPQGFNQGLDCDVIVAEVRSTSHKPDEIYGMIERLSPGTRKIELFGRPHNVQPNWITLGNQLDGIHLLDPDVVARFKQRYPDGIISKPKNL", "T1 sequence (Q9HCE5 whole entry partner)": "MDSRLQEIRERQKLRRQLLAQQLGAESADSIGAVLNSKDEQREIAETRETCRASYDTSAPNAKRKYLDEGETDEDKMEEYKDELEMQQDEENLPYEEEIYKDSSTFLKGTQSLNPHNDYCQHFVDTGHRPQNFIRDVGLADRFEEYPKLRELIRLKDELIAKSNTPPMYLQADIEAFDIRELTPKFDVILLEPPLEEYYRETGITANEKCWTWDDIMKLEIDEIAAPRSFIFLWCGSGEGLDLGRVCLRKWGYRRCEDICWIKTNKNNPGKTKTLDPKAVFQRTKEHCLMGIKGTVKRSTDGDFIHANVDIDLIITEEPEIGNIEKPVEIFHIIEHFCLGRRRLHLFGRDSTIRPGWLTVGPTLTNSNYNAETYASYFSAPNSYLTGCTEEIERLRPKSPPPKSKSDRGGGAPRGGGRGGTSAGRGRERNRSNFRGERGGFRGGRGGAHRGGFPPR", "experiment": "METTL3/14 methyltransferase assay (METTL3_14 RFMS, RapidFire mass spectrometry);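 also: recombinant His-tagged METTL3 with FLAG-tagged METTL14 from baculovirus, SAH product quantified by mass spectrometry against isotope-labelled internal standards, 60 min at room temperature, scaled between no-RNA and DMSO-only wells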", "type": "biochemical", "conditions": "5 nM METTL3/14, 0.2 μM RNA substrate, 0.5 μM SAM; lower limit of the assay IC50=5 nM; Compounds 63-265; read-out: METTL3_14 RFMS IC50"}
{"smiles": "O=C(NCc1cn2cc(CNCC3CC3(F)F)ccc2n1)c1cc(=O)n2ccccc2n1", "note": "(stereo not drawn) [Compound 157, N-{[6-({[(2,2-difluoro-cyclopropyl)methyl]amino}methyl)imidazo [1,2-a]pyridin-2-yl]methyl}-4-oxo-4H-pyrido [1,2-a]pyrimidine-2-carboxamide]", "values": [{"measurement": "IC50", "value": 42.9, "unit": "nM"}]}
{"smiles": "O=C(NCc1cn2cc(CNc3cccc(Cl)c3)ccc2n1)c1cc(=O)n2ccccc2n1", "note": "[Compound 158, N-[(6-{[(3-chlorophenyl)amino]methyl}imidazo[1,2-a]pyridin-2-yl)methyl]-4-oxo-4H-pyrido[1,2-a]pyrimidine-2-carboxamide]", "values": [{"measurement": "IC50", "value": 3810, "unit": "nM"}]}
{"smiles": "CC1(C)CC1CNCc1ccc2nc(CNC(=O)c3cc(=O)n4ccccc4n3)cn2c1", "note": "(stereo not drawn) [Compound 159, N-{[6-({[(2,2-dimethyl-cyclopropyl)methyl]amino}methyl)imidazo [1,2-a]pyridin-2-yl]methyl}-4-oxo-4H-pyrido [1,2-a]pyrimidine-2-carboxamide]", "values": [{"measurement": "IC50", "value": 19.5, "unit": "nM"}]}
{"smiles": "CC1(CNCc2ccc3nc(CNC(=O)c4cc(=O)n5ccccc5n4)cn3c2)CCCO1", "note": "(stereo not drawn) [Compound 160, N-{[6-({[(2-methyloxolan-2-yl)methyl]amino}methyl)imidazo [1,2-a]pyridin-2-yl]methyl}-4-oxo-4H-pyrido [1,2-a]pyrimidine-2-carboxamide]", "values": [{"measurement": "IC50", "value": 93.2, "unit": "nM"}]}
{"smiles": "CC(C)(C)C1CCN(Cc2ccc3nc(CNC(=O)c4cc(=O)n5ccccc5n4)cn3c2)CC1", "note": "[Compound 161, N-({6-[(4-tert-butylpiperidin-1-yl)methyl]imidazo[1,2-a]pyridin-2-yl}methyl)-4-oxo-4H-pyrido[1,2-a]pyrimidine-2-carboxamide]", "values": [{"measurement": "IC50", "value": 99.1, "unit": "nM"}]}
{"smiles": "CC(C)(C)C1CCC(NCc2ccc3nc(CNC(=O)c4cc(=O)n5ccccc5n4)cn3c2)CC1", "note": "(stereo not drawn) [Compound 162, N-[(6-{[(4-tert-butylcyclohexyl)amino]methyl}imidazo[1,2-a]pyridin-2-yl)methyl]-4-oxo-4H-pyrido[1,2-a] pyrimidine-2-carboxamide]", "values": [{"measurement": "IC50", "value": 225, "unit": "nM"}]}
{"smiles": "O=C(NCc1cn2cc(CNCCC3CCCC3)ccc2n1)c1cc(=O)n2ccccc2n1", "note": "[Compound 163, N-[(6-{[(2-cyclopentylethyl)amino]methyl}imidazo[1,2-a]pyridin-2-yl)methyl]-4-oxo-4H-pyrido[1,2-a]pyrimidine-2-carboxamide]", "values": [{"measurement": "IC50", "value": 80.1, "unit": "nM"}]}
{"smiles": "CC(C)(C)C(=O)N1CCN(Cc2ccc3nc(CNC(=O)c4cc(=O)n5ccccc5n4)cn3c2)CC1", "note": "[Compound 166, N-[(6-{[4-(2,2-dimethylpropanoyl)piperazin-1-yl]methyl}imidazo[1,2-a]pyridin-2-yl)methyl]-4-oxo-4H-pyrido [1,2-a]pyrimidine-2-carboxamide]", "values": [{"measurement": "IC50", "value": 10500, "unit": "nM"}]}
{"smiles": "CC(=O)N1CCN(Cc2ccc3nc(CNC(=O)c4cc(=O)n5ccccc5n4)cn3c2)CC1", "note": "[Compound 167, N-({6-[(4-acetylpiperazin-1-yl)methyl]imidazo[1,2-a]pyridin-2-yl}methyl)-4-oxo-4H-pyrido[1,2-a]pyrimidine-2-carboxamide]", "values": [{"measurement": "IC50", "value": 8070, "unit": "nM"}]}
{"smiles": "O=C(NCc1cn2cc(CNC(CO)C3CCCCC3)ccc2n1)c1cc(=O)n2ccccc2n1", "note": "(stereo not drawn) [Compound 168, N-[(6-{[(1-cyclohexyl-2-hydroxyethyl)amino]methyl}imidazo[1,2-a]pyridin-2-yl)methyl]-4-oxo-4H-pyrido[1,2-a]pyrimidine-2-carboxamide]", "values": [{"measurement": "IC50", "value": 114, "unit": "nM"}]}
{"smiles": "O=C(NCc1cn2cc(CN3C4CCC3CC4)ccc2n1)c1cc(=O)n2ccccc2n1", "note": "[Compound 169, N-{[6-({7-azabicyclo [2.2.1]heptan-7-yl}methyl)imidazo[1,2-a]pyridin-2-yl]methyl}-4-oxo-4H-pyrido[1,2-a]pyrimidine-2-carboxamide]", "values": [{"measurement": "IC50", "value": 391, "unit": "nM"}]}
{"smiles": "O=C(NCc1cn2cc(CNCC3CCCCC3)ccc2n1)c1cc(=O)c2ccccc2o1", "note": "[Compound 170, N-[(6-{[(cyclohexylmethyl)amino]methyl}imidazo[1,2-a]pyridin-2-yl)methyl]-4-oxo-4H-chromene-2-carboxamide]", "values": [{"measurement": "IC50", "value": 29.4, "unit": "nM"}]}
{"smiles": "O=C(NCc1cn2cc(CNCC3CCCCC3)ccc2n1)c1cc(=O)c2ccc(Cl)cc2o1", "note": "[Compound 171, 7-chloro-N-[(6-{[(cyclohexylmethyl)amino]methyl}imidazo[1,2-a]pyridin-2-yl)methyl]-4-oxo-4H-chromene-2-carboxamide]", "values": [{"measurement": "IC50", "value": 293, "unit": "nM"}]}
{"smiles": "O=C(NCc1cn2cc(CNCC3CCCCC3)ccc2n1)c1cc(=O)c2cc(Cl)ccc2o1", "note": "[Compound 172, 6-chloro-N-[(6-{[(cyclohexylmethyl)amino]methyl}imidazo[1,2-a]pyridin-2-yl)methyl]-4-oxo-4H-chromene-2-carboxamide]", "values": [{"measurement": "IC50", "value": 309, "unit": "nM"}]}
{"smiles": "O=C(NCc1cn2cc(CNCC3CCCCC3)ccc2n1)c1cc(=O)n2c(n1)CCCC2", "note": "[Compound 175, N-[(6-{[(cyclohexylmethyl)amino]methyl}imidazo[1,2-a]pyridin-2-yl)methyl]-4-oxo-4H,6H,7H,8H, 9H-pyrido[1,2-a]pyrimidine-2-carboxamide]", "values": [{"measurement": "IC50", "value": 214, "unit": "nM"}]}
{"smiles": "Nc1ccc(C(=O)NCc2cn3cc(CNCC4CCCCC4)ccc3n2)cn1", "note": "[Compound 176, 6-amino-N-[(6-{[(cyclohexylmethyl)amino]methyl}imidazo[1,2-a]pyridin-2-yl)methyl] pyridine-3-carboxamide]", "values": [{"measurement": "IC50", "value": 909, "unit": "nM"}]}
{"smiles": "O=C(NCc1cn2cc(COCc3ccccc3)ccc2n1)c1cc(=O)n2ccccc2n1", "note": "[Compound 177]", "values": [{"measurement": "IC50", "value": 1890, "unit": "nM"}]}
{"smiles": "O=C(NCc1cn2cc(CNCC3CCCCC3)ccc2n1)c1cc(=O)c2ccc(F)cc2o1", "note": "[Compound 180, N-[(6-{[(cyclohexylmethyl)amino]methyl}imidazo [1,2-a]pyridin-2-yl)methyl]-7-fluoro-4-oxo-4H-chromene-2-carboxamide]", "values": [{"measurement": "IC50", "value": 889, "unit": "nM"}]}
{"smiles": "Cc1ccc2c(=O)cc(C(=O)NCc3cn4cc(CNCC5CCCCC5)ccc4n3)oc2c1", "note": "[Compound 181, N-[(6-{[(cyclohexylmethyl)amino]methyl}imidazo[1,2-a]pyridin-2-yl)methyl]-7-methyl-4-oxo-4H-chromene-2-carboxamide]", "values": [{"measurement": "IC50", "value": 179, "unit": "nM"}]}
{"smiles": "O=C(NCc1cn2cc(CNCC3CCCCC3)ccc2n1)c1cccc2[nH]ncc12", "note": "[Compound 182, N-[(6-{[(cyclohexyl-methyl)amino]methyl}imidazo[1,2-a]pyridin-2-yl)methyl]-1H-indazole-4-carboxamide]", "values": [{"measurement": "IC50", "value": 179, "unit": "nM"}]}
{"smiles": "O=C(NCc1cn2cc(CNCC3CCCCC3)ccc2n1)c1cc(=O)c2cccc(Cl)c2o1", "note": "[Compound 185, 8-chloro-N-[(6-{[(cyclohexylmethyl)amino]methyl}imidazo[1,2-a]pyridin-2-yl)methyl]-4-oxo-4H-chromene-2-carboxamide]", "values": [{"measurement": "IC50", "value": 1070, "unit": "nM"}]}
{"smiles": "O=C(NCc1cn2cc(CNCC3CCCCC3)ccc2n1)c1cc(Br)cc2[nH]ncc12", "note": "[Compound 187, 6-bromo-N-[(6-{[(cyclohexylmethyl)amino]methyl}imidazo[1,2-a]pyridin-2-yl)methyl]-1H-indazole-4-carboxamide]", "values": [{"measurement": "IC50", "value": 44.1, "unit": "nM"}]}
{"smiles": "CC(NCC1CCCCC1)c1ccc2nc(CNC(=O)c3cc(=O)n4ccccc4n3)cn2c1", "note": "(stereo not drawn) [Compound 189, N-[(6-{1-[(cyclohexyl-methyl)amino]ethyl}imidazo [1,2-a]pyridin-2-yl)methyl]-4-oxo-4H-pyrido[1,2-a]pyrimidine-2-carboxamide]", "values": [{"measurement": "IC50", "value": 132, "unit": "nM"}]}
{"smiles": "O=C(NCc1cn2cc(CNCC3CCCCC3)ccc2n1)c1cc(Cl)cc2[nH]ncc12", "note": "[Compound 190, 6-chloro-N-[(6-{[(cyclohexylmethyl)amino]methyl}imidazo[1,2-a]pyridin-2-yl)methyl]-1H-indazole-4-carboxamide]", "values": [{"measurement": "IC50", "value": 56.1, "unit": "nM"}]}
